# Reference: ChEMBL document CHEMBL1140940, “Pyrido[2,3-d]pyrimidin-5-ones: a novel class of antiinflammatory macrophage colony-stimulating factor-1 receptor inhibitors” (J Med Chem, 2009)
# Assays:
# [1] = molecular target: Macrophage colony-stimulating factor 1 receptor (Homo sapiens, UniProt P07333)
# [2] = Volume of distribution at steady state in Sprague-Dawley rat at 2 mg/kg, iv; type: ADME, organism-based; parameters: dose 2 mg/kg, route intravenous; conditions: in vivo, read-out: Vdss
# [3] = Metabolic stability in rat liver microsomes after 10 mins; type: ADME, Microsome; conditions: read-out: Stability
# [4] = Metabolic stability in human liver microsomes after 10 mins; type: ADME, Microsome; conditions: read-out: Stability
# [5] = Half life in Sprague-Dawley rat at 2 mg/kg, iv; type: ADME, organism-based; parameters: dose 2 mg/kg, route intravenous; conditions: in vivo
# [6] = Cmax in Sprague-Dawley rat at 10 mg/kg, po; type: ADME, organism-based; parameters: dose 10 mg/kg, route oral; conditions: in vivo
# [7] = Oral bioavailability in Sprague-Dawley rat at 10 mg/kg; type: ADME, organism-based; conditions: in vivo
# [8] = Clearance in Sprague-Dawley rat at 2 mg/kg, iv; type: ADME, organism-based; parameters: dose 2 mg/kg, route intravenous; conditions: in vivo
# [9] = Half life in Sprague-Dawley rat at 10 mg/kg, po; type: ADME, organism-based; parameters: dose 10 mg/kg, route oral; conditions: in vivo
# Insulin receptor = Insulin receptor (Homo sapiens, UniProt P06213); assay: Inhibition of IRKbeta by fluorescence polarization competition immunoassay
# [10] = molecular target: T1, Receptor-type tyrosine-protein kinase FLT3 (Homo sapiens, UniProt P36888); assay: Inhibition of FLT3 by fluorescence polarization competition immunoassay
# T1 sequence (P36888 whole entry): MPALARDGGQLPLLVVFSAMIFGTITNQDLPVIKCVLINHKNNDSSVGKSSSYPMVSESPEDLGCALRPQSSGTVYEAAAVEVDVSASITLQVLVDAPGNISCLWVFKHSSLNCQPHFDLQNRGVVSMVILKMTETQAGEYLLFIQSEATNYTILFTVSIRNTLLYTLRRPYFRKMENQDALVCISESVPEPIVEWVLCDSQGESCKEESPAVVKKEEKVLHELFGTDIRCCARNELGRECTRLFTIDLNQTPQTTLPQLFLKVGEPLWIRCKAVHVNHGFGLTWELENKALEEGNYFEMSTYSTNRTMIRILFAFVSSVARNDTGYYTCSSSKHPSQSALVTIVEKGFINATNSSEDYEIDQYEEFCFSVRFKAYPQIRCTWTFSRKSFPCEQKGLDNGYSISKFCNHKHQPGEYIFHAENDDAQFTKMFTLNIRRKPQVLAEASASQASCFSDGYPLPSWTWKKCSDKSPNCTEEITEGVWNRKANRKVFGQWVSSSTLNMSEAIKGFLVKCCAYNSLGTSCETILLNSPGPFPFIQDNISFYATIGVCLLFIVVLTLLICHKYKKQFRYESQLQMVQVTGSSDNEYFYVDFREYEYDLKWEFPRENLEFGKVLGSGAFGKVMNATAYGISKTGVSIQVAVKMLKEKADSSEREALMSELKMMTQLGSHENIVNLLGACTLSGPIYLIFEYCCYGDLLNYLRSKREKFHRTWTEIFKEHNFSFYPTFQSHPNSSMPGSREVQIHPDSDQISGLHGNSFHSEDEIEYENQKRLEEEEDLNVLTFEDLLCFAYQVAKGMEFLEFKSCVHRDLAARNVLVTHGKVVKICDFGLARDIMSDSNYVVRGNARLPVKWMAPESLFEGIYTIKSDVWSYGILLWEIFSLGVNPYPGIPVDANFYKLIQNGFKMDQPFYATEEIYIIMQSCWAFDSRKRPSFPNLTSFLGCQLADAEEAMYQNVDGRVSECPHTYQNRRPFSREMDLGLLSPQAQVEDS
# [11] = molecular target: Proto-oncogene tyrosine-protein kinase Src (Homo sapiens, UniProt P12931); assay: Inhibition of Src by fluorescence polarization competition immunoassay
# [12] = molecular target: T2, Tyrosine-protein kinase receptor UFO (Homo sapiens, UniProt P30530); assay: Inhibition of Axl by fluorescence polarization competition immunoassay
# T2 sequence (P30530 whole entry): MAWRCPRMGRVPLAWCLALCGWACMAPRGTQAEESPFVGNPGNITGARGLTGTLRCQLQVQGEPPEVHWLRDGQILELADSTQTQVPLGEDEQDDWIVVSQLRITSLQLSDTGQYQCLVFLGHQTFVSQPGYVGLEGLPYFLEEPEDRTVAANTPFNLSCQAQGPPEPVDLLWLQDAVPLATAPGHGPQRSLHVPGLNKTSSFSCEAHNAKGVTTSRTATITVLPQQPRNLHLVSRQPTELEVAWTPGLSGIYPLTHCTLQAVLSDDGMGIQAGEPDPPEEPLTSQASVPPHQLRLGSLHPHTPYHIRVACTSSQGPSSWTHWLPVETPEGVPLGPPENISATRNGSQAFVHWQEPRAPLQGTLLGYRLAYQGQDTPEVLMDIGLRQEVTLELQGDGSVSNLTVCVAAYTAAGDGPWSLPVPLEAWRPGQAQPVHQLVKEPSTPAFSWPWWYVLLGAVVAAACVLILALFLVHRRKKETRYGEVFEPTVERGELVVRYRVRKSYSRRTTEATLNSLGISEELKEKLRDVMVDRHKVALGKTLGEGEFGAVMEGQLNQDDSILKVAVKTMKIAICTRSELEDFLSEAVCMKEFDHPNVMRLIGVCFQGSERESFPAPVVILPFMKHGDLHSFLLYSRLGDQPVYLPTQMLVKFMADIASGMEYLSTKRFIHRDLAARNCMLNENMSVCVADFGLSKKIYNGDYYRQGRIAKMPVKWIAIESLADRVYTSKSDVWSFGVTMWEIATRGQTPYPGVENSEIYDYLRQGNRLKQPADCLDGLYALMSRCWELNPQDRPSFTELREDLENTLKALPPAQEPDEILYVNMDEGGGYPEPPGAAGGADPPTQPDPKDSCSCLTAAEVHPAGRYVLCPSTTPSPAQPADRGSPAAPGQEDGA
# [13] = molecular target: High affinity nerve growth factor receptor (Homo sapiens, UniProt P04629); assay: Inhibition of TrkA by fluorescence polarization competition immunoassay
# [14] = molecular target: Platelet-derived growth factor receptor beta (Homo sapiens, UniProt P09619); assay: Inhibition of PDGFRbeta by fluorescence polarization competition immunoassay
# [15] = molecular target: Mast/stem cell growth factor receptor Kit (Homo sapiens, UniProt P10721); assay: Inhibition of KIT by fluorescence polarization competition immunoassay
# Rattus norvegicus [16] = organism: Rattus norvegicus; assay: Toxicity in rat assessed as induction of cold body; type: organism-based; conditions: in vivo
# Rattus norvegicus [17] = organism: Rattus norvegicus; assay: Toxicity in rat assessed as induction of mucoid feces; type: organism-based; conditions: in vivo
# Rattus norvegicus [18] = organism: Rattus norvegicus; assay: Toxicity in rat assessed as induction of weight loss; type: organism-based; conditions: in vivo
# Sequence of Macrophage colony-stimulating factor 1 receptor (P07333 whole entry): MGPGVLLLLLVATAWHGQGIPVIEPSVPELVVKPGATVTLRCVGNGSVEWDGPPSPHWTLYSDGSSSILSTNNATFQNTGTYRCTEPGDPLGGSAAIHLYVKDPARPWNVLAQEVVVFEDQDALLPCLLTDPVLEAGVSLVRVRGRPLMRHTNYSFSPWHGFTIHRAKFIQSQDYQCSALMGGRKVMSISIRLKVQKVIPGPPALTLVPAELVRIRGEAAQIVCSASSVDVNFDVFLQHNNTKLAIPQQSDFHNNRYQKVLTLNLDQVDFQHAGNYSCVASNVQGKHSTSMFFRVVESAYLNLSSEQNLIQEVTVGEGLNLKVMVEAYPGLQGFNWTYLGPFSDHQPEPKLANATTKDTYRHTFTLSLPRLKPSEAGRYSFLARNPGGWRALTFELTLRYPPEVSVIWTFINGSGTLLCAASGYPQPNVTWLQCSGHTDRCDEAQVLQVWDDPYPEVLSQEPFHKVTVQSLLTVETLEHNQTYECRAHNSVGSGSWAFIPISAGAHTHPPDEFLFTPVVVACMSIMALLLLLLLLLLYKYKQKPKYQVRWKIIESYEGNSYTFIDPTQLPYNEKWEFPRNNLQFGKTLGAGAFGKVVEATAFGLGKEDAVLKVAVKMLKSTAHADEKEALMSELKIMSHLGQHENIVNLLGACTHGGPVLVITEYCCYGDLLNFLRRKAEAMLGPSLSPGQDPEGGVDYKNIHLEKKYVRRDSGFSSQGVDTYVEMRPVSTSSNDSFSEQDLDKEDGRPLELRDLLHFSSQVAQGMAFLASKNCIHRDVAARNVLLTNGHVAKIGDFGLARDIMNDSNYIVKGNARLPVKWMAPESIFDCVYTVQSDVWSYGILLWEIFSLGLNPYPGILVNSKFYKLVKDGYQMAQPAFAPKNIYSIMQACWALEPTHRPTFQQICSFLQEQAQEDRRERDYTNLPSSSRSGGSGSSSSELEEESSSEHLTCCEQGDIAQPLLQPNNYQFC
# Sequence of Insulin receptor (P06213 28-758 limits assumed): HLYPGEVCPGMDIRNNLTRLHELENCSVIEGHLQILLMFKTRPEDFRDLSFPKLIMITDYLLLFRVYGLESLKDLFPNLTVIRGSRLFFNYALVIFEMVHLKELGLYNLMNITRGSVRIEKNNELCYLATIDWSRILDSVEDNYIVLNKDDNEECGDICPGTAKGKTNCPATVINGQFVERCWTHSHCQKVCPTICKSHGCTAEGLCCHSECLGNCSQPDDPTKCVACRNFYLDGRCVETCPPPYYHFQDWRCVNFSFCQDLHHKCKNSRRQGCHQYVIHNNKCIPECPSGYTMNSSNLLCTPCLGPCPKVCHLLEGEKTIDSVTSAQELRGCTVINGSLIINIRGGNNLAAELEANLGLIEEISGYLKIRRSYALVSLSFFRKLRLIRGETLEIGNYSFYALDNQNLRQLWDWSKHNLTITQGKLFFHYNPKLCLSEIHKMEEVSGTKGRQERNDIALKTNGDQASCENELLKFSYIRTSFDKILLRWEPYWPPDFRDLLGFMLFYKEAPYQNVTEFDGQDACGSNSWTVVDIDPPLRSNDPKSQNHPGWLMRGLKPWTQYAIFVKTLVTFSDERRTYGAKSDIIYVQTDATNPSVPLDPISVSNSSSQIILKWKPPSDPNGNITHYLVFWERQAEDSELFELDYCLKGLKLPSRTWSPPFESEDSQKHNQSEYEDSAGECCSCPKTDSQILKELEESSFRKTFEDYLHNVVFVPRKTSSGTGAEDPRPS
# Sequence of Insulin receptor (P06213 763-1382 limits assumed): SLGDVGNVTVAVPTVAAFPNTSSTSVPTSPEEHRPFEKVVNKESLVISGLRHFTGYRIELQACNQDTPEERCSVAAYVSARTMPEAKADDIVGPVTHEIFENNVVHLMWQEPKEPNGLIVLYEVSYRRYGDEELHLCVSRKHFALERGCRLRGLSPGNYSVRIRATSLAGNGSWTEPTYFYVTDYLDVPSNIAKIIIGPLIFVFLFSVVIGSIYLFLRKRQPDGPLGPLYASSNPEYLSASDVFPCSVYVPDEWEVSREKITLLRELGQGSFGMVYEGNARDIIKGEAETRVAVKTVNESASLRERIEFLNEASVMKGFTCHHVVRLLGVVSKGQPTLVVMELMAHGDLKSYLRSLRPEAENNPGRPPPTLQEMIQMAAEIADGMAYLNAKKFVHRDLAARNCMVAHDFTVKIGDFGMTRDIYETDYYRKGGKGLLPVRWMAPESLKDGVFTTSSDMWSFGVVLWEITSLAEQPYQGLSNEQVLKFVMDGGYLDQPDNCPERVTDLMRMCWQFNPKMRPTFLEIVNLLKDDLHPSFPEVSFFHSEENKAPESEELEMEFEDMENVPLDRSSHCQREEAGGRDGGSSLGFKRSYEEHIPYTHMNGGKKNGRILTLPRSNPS
# Sequence of High affinity nerve growth factor receptor (P04629 whole entry): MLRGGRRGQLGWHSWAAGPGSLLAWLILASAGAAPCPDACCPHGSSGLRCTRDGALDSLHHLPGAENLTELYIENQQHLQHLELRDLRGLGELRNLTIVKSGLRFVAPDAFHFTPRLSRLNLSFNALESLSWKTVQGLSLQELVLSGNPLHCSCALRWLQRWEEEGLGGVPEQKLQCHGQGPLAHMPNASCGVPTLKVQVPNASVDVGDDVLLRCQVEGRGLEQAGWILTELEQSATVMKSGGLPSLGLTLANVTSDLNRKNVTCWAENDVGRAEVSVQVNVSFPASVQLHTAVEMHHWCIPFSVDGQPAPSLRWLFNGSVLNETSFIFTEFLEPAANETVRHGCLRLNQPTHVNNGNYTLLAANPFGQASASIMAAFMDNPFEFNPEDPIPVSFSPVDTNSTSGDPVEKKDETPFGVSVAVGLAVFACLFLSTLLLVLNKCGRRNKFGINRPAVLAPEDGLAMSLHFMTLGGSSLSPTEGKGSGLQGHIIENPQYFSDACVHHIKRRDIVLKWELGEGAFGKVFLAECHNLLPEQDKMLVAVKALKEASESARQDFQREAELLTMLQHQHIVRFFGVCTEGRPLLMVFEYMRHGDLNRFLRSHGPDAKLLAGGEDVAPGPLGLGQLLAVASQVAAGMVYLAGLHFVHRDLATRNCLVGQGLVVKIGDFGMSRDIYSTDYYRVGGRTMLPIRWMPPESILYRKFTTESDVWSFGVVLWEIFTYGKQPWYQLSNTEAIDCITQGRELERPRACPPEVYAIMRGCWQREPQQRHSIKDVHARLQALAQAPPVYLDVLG
# Sequence of Platelet-derived growth factor receptor beta (P09619 whole entry): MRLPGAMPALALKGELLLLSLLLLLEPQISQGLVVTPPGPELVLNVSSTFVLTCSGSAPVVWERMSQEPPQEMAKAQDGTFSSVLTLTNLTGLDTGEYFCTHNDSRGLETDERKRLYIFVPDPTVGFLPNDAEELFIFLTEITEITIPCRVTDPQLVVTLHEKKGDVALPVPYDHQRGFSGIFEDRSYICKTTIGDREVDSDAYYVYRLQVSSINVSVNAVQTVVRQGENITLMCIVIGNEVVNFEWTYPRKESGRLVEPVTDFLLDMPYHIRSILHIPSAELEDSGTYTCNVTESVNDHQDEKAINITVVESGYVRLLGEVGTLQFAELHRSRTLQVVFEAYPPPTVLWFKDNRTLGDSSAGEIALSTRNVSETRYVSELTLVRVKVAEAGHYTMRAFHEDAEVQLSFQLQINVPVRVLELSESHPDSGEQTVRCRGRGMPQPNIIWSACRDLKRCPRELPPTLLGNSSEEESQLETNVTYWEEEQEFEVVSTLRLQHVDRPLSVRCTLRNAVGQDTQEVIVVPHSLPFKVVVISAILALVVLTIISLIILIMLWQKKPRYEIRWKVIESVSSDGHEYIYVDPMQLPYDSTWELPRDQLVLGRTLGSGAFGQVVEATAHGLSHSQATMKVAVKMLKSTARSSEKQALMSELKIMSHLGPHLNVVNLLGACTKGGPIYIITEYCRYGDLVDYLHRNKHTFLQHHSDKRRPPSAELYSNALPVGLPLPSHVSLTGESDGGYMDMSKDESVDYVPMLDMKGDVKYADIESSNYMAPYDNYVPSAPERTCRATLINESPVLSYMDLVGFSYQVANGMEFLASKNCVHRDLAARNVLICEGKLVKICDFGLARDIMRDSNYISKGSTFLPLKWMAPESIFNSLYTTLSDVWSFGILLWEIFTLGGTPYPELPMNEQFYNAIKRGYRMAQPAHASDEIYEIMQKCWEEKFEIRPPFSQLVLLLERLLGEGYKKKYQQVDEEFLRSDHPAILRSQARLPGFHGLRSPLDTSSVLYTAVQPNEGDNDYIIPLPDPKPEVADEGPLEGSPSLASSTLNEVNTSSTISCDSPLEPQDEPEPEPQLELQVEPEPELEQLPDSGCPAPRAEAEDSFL
# Sequence of Proto-oncogene tyrosine-protein kinase Src (P12931 2-536 limits assumed): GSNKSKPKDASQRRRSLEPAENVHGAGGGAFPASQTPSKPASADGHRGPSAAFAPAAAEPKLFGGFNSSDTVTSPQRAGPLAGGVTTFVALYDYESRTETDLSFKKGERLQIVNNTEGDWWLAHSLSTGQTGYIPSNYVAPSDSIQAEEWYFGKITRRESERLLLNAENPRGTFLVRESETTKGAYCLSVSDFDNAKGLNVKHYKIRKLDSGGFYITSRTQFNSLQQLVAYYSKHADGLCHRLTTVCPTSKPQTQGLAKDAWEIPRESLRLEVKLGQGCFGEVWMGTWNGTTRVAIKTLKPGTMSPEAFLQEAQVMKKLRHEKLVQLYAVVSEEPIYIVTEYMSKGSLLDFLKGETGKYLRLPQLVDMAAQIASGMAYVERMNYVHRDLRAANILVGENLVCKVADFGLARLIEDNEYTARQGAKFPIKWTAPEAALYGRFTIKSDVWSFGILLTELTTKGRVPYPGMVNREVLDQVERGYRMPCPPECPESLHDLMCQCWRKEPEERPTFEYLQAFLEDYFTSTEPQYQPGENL
Compound,IC50 [1] [nM],Vd [2] [L/kg],remaining at 10 min [3] [%],remaining at 10 min [4] [%],half-life [5] [h],bioavailability [7] [%],clearance [8] [mL/min/kg],other results
CCNC(=O)c1cn(-c2ccc3c(c2)CCC3)c2nc(Nc3ccc(CCN4CCN(C)CC4)cc3)ncc2c1=O,3.2,,,,,,,
CONC(=O)c1cn(-c2ccc3c(c2)CCC3)c2nc(Nc3ccc(C4CCN(CCO)CC4)cc3)ncc2c1=O,,8.8,100,80,3,8,34,Cmax [6]: 130 nM
CONC(=O)c1cn(C2CCCCC2)c2nc(Nc3ccc(C4CCN(C)CC4)cc3)ncc2c1=O,5,,68,96,,,,
CONC(=O)c1cn(-c2ccc3c(c2)CCC3)c2nc(Nc3ccc(C4CCN(C)CC4(F)F)cc3)ncc2c1=O (centres undefined),0.7,,44,16,,,,
CONC(=O)c1cn(-c2ccc3c(c2)CCC3)c2nc(Nc3ccc(CCN4CCC(F)(F)CC4)cc3)ncc2c1=O,,,86,83,,,,
CCN1CCCC(O)(c2cccc(Nc3ncc4c(=O)c(C(=O)NOC)cn(-c5ccc6c(c5)CCC6)c4n3)c2)C1 (centres undefined),,5.6,89,88,5.2,28,20.4,Cmax [6]: 400 nM
CN1CCN(c2ccc(Nc3ncc4c(=O)c(C(N)=O)cn(-c5ccc6c(c5)CCC6)c4n3)cc2)CC1,,,,,,0,,
CNC(=O)c1cn(-c2ccc3c(c2)CCC3)c2nc(Nc3ccc(CCN4CCOCC4)cc3)ncc2c1=O,1.4,2.6,100,,0.7,4,47,Cmax [6]: 130 nM; half-life [9]: 1.8 h
CONC(=O)c1cn(-c2ccc3c(c2)CCC3)c2nc(NCc3ccccc3)ncc2c1=O,75,,,,,,,
CNC(=O)c1cn(-c2ccc3c(c2)CCC3)c2nc(Nc3ccc(CCN4CCN(C)CC4)cc3)ncc2c1=O,1.2,,73,,,,,
CCc1cccc(-n2cc(C(=O)NOC)c(=O)c3cnc(Nc4ccc(C5CCN(C)CC5)cc4)nc32)c1,0.4,,,,,,,
CONC(=O)c1cn(-c2ccc3c(c2)CCC3)c2nc(Nc3ccc(CCN4CCN(C)CC4)cc3)ncc2c1=O,0.7,1.5,78,,4.5,57,4,IC50 (Insulin receptor): 19800 nM; IC50 [10]: 36 nM; IC50 [11]: 1500 nM; Cmax [6]: 2700 nM; IC50 [12]: > 500 nM; IC50 [13]: > 500 nM; half-life [9]: 6.5 h; IC50 [14]: 5300 nM; IC50 [15]: 6 nM
CCONC(=O)c1cn(-c2ccc3c(c2)CCC3)c2nc(Nc3ccc(CCN4CCN(C)CC4)cc3)ncc2c1=O,,,84,,,,,
CONC(=O)c1cn(-c2ccc3c(c2)CCC3)c2nc(Nc3ccc(C4CCN(CC(=O)O)CC4)cc3)ncc2c1=O,,5.1,99,100,1.7,0,38,IC50 (Insulin receptor): 9300 nM; IC50 [10]: 41 nM; IC50 [11]: 930 nM; IC50 [12]: > 500 nM; IC50 [13]: > 500 nM; IC50 [14]: > 2000 nM; IC50 [15]: 13 nM
CONC(=O)c1cn(-c2ccc3c(c2)CCC3)c2nc(Nc3ccc(C4CCNCC4)cc3)ncc2c1=O,0.5,,93,97,,,,
CONC(=O)c1cn(-c2ccc3c(c2)CCC3)c2nc(Nc3ccc(CCN4CCNC(=O)C4)cc3)ncc2c1=O,,0.8,69,35,6,3,10,Cmax [6]: 80 nM; half-life [9]: 9.7 h
CCc1ccc(-n2cc(C(=O)NOC)c(=O)c3cnc(Nc4ccc(C5CCN(C)CC5)cc4)nc32)cc1,,5.9,96,75,8,103,8,Activity (Rattus norvegicus [16]): Non-toxic; Activity (Rattus norvegicus [17]): Non-toxic; Cmax [6]: 3400 nM; Activity (Rattus norvegicus [18]): Non-toxic; half-life [9]: 8.1 h
CN1CCN(CCc2ccc(Nc3ncc4c(=O)c(C(N)=O)cn(-c5ccc6c(c5)CCC6)c4n3)cc2)CC1,,15.5,96,,7,0,25,IC50 (Insulin receptor): > 42000 nM; IC50 [10]: 1 nM; IC50 [11]: 5900 nM; IC50 [12]: > 500 nM; IC50 [13]: 170 nM; IC50 [14]: > 42000 nM; IC50 [15]: 20 nM
CONC(=O)c1cn(-c2ccc3c(c2)CCC3)c2nc(Nc3ccc(CCN4CCOCC4)cc3)ncc2c1=O,,,24,5.4,,,,
CC(C)ONC(=O)c1cn(-c2ccc3c(c2)CCC3)c2nc(Nc3ccc(CCN4CCN(C)CC4)cc3)ncc2c1=O,0.5,,100,,,,,
CONC(=O)c1cn(-c2ccc3c(c2)CCC3)c2nc(Nc3ccc(OC)nc3)ncc2c1=O,5.2,,,,,,,
CN1CCN(CCc2ccc(Nc3ncc4c(=O)c(C(=O)NCCO)cn(-c5ccc6c(c5)CCC6)c4n3)cc2)CC1,0.7,,84,,,,,
CONC(=O)c1cn(-c2ccc3c(c2)CCC3)c2nc(Nc3ccc(CCS(=O)(=O)NC(C)=O)cc3)ncc2c1=O,,,83,84,,,,
CCCCNc1ncc2c(=O)c(C(=O)NOC)cn(-c3ccc4c(c3)CCC4)c2n1,15,,,,,,,
CONC(=O)c1cn(C2CCC(C)(C)CC2)c2nc(Nc3ccc(C4CCN(C)CC4)cc3)ncc2c1=O,,,97,93,,,,
CONC(=O)c1cn(-c2ccc3c(c2)CCC3)c2nc(Nc3ccc(CCN4CCN(C)C(=O)C4)cc3)ncc2c1=O,0.8,,29,2.8,,,,
